Measurements from US10526343B2, “Heterocyclic systems and pharmaceutical applications thereof” (University of Sharjah, priority 2018, dated 2020).

How the values were obtained:
[1] = system: UDH-7 (environmental isolate, S. haemolyticus); assay: MIC by broth microdilution; format: cell-based
Description: (§1) Bacteria of the genus Staphylococcus were selected for MIC investigation due to its clinical importance. Compounds showing activity against S. aureus (ATCC 25923) were tested against 10 multidrug-resistant strains of Staphylococcus species, including: clinical isolates methicillin-resistant Staphylococcus aureus (MRSA) strains MRSA-1, MRSA-2, and MRSA-3, and environmental isolates S. saprophyticus (strains UDH-1, UDH-2, UDH-3 and UDH-4), S. haemolyticus (strains UDH-6 and UDH-7), and S. epidermidis strain UDH-5.
(§2) All these strains were resistant to at least three antibiotics from different classes, as confirmed by a disk diffusion assay.
(§3) A broth microdilution method was used to measure MIC according to the Clinical and Laboratory Standards Institute guidelines. Two-fold serial dilutions of the test compound (8 concentrations ranged between 100-0.78 μg/mL) were tested. Two reference antibiotics were used as quality controls (ciprofloxacin and amikacin). In each experiment, solvent (DMSO) was used as a negative control, un-treated control (composing of bacteria in Mueller-Hinton broth) was used as a growth control, blank (culture media alone) was used as sterility control. The 96-well microplate with the test compounds was incubated for 20 hours at 37° C. Turbidity in wells indicated bacterial growth. […] For the definite determination of MIC, CellTiter-Blue® Cell Viability Assay (Promega, USA) was used (as above). The MIC was defined as the lowest compound concentration that prevented the color change of the Cell Viability solution (absence of bacterial growth; thus, suspension remained blue in color). For the definite determination of MIC, CellTiter-Blue® Cell Viability Assay (Promega, USA) was used (as above). To each well of the 96-well microplate, 20 μL of the Cell Viability Assay solution was added to the overnight (20 hours culture) and incubated at 37° C. for 4 hours. After the end of the incubation, pink and blue colors were used to differentiate viable from dead bacterial suspensions, respectively. The MIC was defined as the lowest compound concentration that prevented the color change.

[2] = system: UDH-2 (environmental isolate, S. saprophyticus); assay: MIC by broth microdilution; format: cell-based; details: Staphylococcus saprophyticus
Description: as §1, §2, §3

[3] = system: UDH-5 (environmental isolate, S. epidermidis); assay: MIC by broth microdilution; format: cell-based; details: Staphylococcus epidermidis
Description: as §1, §2, §3

[4] = system: UDH-6 (environmental isolate, S. haemolyticus); assay: MIC by broth microdilution; format: cell-based
Description: as §1, §2, §3

[5] = system: UDH-3 (environmental isolate, S. saprophyticus); assay: MIC by broth microdilution; format: cell-based
Description: as §1, §2, §3

[6] = system: UDH-1 (environmental isolate, S. saprophyticus); assay: MIC by broth microdilution; format: cell-based
Description: as §1, §2, §3

[7] = system: UDH-4 (environmental isolate, S. saprophyticus); assay: MIC by broth microdilution; format: cell-based; details: Staphylococcus saprophyticus
Description: as §1, §2, §3

MRSA-1 = assay: Examination of bacterial cell walls by atomic force microscope (AFM); format: cell-based, Staphylococcus aureus; details: MRSA-1, 25 μg/mL, 4 hours
Description: Atomic force microscopy (AFM) provides three-dimensional images of the surfaces of living microbial cells in real time and in high resolution with minimal sample preparation. Compound 1o was tested against the bacterial strain MRSA-1 and the slides were examined under AFM. Specifically, FIGS. 5A1 and 5B1 show an untreated MRSA-1 strain at scan sizes of 10 μm^2 and […], respectively, and FIGS. 5A2 and 5B2 show a MRSA-1 strain treated with compound 1o at scan sizes of 10 μm^2 and 5 μm^2, respectively. […] Rapid bacterial killing coupled with cell wall damage as evidenced in the AFM images indicate the action of compound 1o on the cell wall, as reported for the known antibiotics like polymyxin, which rapidly breaks the cell membrane of Gram-negative bacteria, causing fast cell death.
Compound 1o was tested against the bacterial strain MRSA-1. Exponentially growing bacterial cells were prepared in Mueller-Hinton broth at a concentration of approximately 10^8 CFU/mL by adjusting the turbidity to 0.5 with a McFarland™ densitometer (DEN-1B, Grant-Bio, UK). […]

[8] = Staphylococcus haemolyticus, environmental isolate
[9] = Staphylococcus saprophyticus, environmental isolate

In the case of `COC(=O)CC1COc2c(cc3c4c2CCCN4CCC3)-c2c(NC(C)(C)C)n3c(-c4ccc(Br)cc4)c(C)sc3[n+]21` (stereo not drawn) [Compound 1o], the MIC [1, 8] is reported as 6.25 µg/mL, the “times lower than MIC of ciprofloxacin” value ([1]; UDH-7) is reported as “approximately 10 times” and the MIC [2] is reported as 6.25 µg/mL. For the same compound, the MIC [3] was 3.12 µg/mL, the MIC [4, 8] was 6.25 µg/mL and the “times lower than MIC of ciprofloxacin” value ([4]; UDH-6) was “approximately 10 times”. For the same compound, the MIC [5, 9] was 3.12 µg/mL, the “times lower than MIC of ciprofloxacin” value ([5]; UDH-3) was “approximately 20 times” and the MIC [6, 9] was 6.25 µg/mL. The “times lower than MIC of ciprofloxacin” value ([6]; UDH-1) was “approximately 10 times”, the MIC [7] was 6.25 µg/mL and the “bacterial cell morphology under AFM” value (MRSA-1) was “Bacterial cell shape distortion and leakage of the intracellular contents”.
